Data on 1 substance can be found in patent publication US20260085315A1, “POLYNUCLEOTIDE COMPOSITIONS AND METHODS FOR TREATMENT OF CANCER” (APTAH BIO, INC., priority 2023, published 2026).

Values joined by “and” are separate entries in the source; they are usually repeats but may differ in a detail not shown here. Equal values may be shown once. d = 2'-deoxy (DNA); m = 2'-O-methyl

The subject of data set [1] is 786-O line. The data set is described as follows: MTT cytotoxicity assay on human cancer cell panel (Example 2). The format is cell-based. The settings on record: 0.03-30 μM, 0.1% FBS. Here is the method: Cell lines were maintained in growth medium with 10% of Fetal Bovine Serum (FBS) until the time of the experiments. Cells were sub-cultured by trypsinization and splitting the cell suspension into fresh flasks and supplementing with fresh culture medium. To perform the assay, the cells were trypsinized, neutralized with complete medium (10% FBS), centrifuged, counted with assistance of a hemocytometer, and plated with the respective media with 10% FBS. Cell lines were plated at a density of 1×10^4 cells per well, other than the SH-SY5Y cell line which was plated at a density of 2.5×10^4. The preparation of the different experimental groups was done with 0.1% FBS (U87MG, MCF-7, SH-SY5Y and 786-O) and 1% FBS (PC-3). The untreated cells were used as negative control (medium only). After 24, 48, 72 and 96 hours of incubation, the effect of ASMO1 and controls on cytotoxicity of cells was determined by MTT assay.
Briefly, plates were taken out and 20 μl of 5 mg/ml of MTT 3-(4,5-dimethythiazol-2-yl)-2,5-diphenyl tetrazolium bromide solution was added to all the wells. […] The absorbance of each well was then read at 540 nm using Synergy HT microplate reader.
Cells were plated and treated with 7 different concentrations (0.03, 0.1, 0.3, 1, 3, 10 and 30 μM) of APT20TTMG with medium (0.1% FBS). MTT assay was performed in 3 distinct times and graphs are represented as absorbance (540 nm). […]
Background: Tetrazolium dyes change colour on reduction, which living cells bring about.

In data set [2] the test system is U87MG (Human Glioblastoma). Description: MTT viability assay 48/96/144 h (Example 5). The format is cell-based. The settings on record: 0.003-30 μM tested. Here is the method:
In vitro effects of APT20TTMG on viability and proliferation of human cancer cell line U87MG (Human Glioblastoma) were also evaluated by MTT and BrdU assays, respectively. Cells were treated with APT20TTMG and Reference Items in technical triplicates (Experiment was done in 3 different sets) at various concentrations for 48 h, 96 h, and 144 h. APT20TTMG and Reference Items were read after every 48 h.
As shown in FIGS. 32-33, A MTT assay (FIG. 32) was also performed with another five different concentrations of APT20TTMG (0.003, 0.03, 0.3, 3, and 30 μM) and at 48, 96, and 144 hours of incubation. […] Finally, to confirm whether APT20TTMG is a cytotoxic or cytostatic molecule considering its ability to reduce cellular viability in certain concentrations, a cell proliferation assay (FIG. 33) with the U87-MG cell line was also performed in the same conditions as the MTT assay. […] Cells were plated and treated with 5 different concentrations (0.003, 0.03, 0.3, 3, and 30 μM). BrdU assay was performed after 48, 96, or 144 hours of incubation. Data are plotted as a percentage (%) of cell viability compared to the negative control group (vehicle). Results are expressed as Mean±SEM of three independent experiments performed in three technical replicates. […]

The test system of data set [3] is AKT. Description: ELISA of tumor tissue homogenate. The settings on record: in relation to the negative control. The format is in vivo, Human. How it is done:
(§1) For the assessment of biomarkers such as cAMP, AKT, GFAP, and TAU by ELISA, the U-87MG tumor tissues dissected out from the animals were homogenized according to kit instructions. The homogenates were centrifugated, and the supernatant was collected and immunoassayed with the Human AKT Protein ELISA Kit (MyByoSouce), cyclic AMP Complete Enzyme-linked Immunosorbent Assay (ELISA) kit (MyByoSouce), Human Glial Fibrillary Acidic Protein (GFAP) ELISA Kit (Cusabio), and Human TAU Protein (TAU) ELISA Kit (MyByoSouce) for the quantitative determination of cAMP, AKT, GFAP, and TAU proteins, respectively.
(§2) As shown in FIG. 37A-D, the graphs present the individual values of protein quantification of tumors from 6 animals. (A) cAMP, (B) […], (C) GFAP, and (D) TAU.
A general note: An ELISA detects its analyte on a solid surface through an enzyme-linked reagent.

Data set [4] has as its system GFAP. Description: ELISA of tumor tissue homogenate. In kind it is in vivo, Human. The settings on record: in relation to the non-treated control. Here is the method:
as §1, §2

Data set [5] concerns TAU. The data set is described as follows: ELISA of tumor tissue homogenate. The format is in vivo, Human. The settings on record: after treatment. How it is done: as §1, §2
Data set [6] concerns Human Glioblastoma Cancer (U-87MG) xenograft. Description: Histopathology of tumor samples with scoring. The format is in vivo, athymic nude mice. Also noted: key: 4: Minimal; 3: Mild; 2: Moderate; 1: Prominent. The following applies: individual animals; G3 APT20TTMG, G2 TMZ. An excerpt:
The fixed tissues were processed for routine paraffin embedding followed by sectioning (3-6 micron). The sections were stained with hematoxylin and eosin. The prepared slides were examined under microscope by the study pathologist to record histopathological findings in tumor samples, related to capsule formation, cell type, connective tissue stroma, apoptosis, necrosis, lipid content, nucleus-to-cytoplasmic (N:C) ratio, nuclei mitotic figures, tumor grade, and level of differentiation. Each histopathological finding and tumor volume were assigned a score ranging from 1 to 4 (Table 7). The sum of these scores for each sample was used to infer the tumor aggressiveness.

Regarding “APT20TTMG: engineered polynucleotide ASMO1, 24 nt, SEQ ID NO: 3 gtccactaacctttcaggccagcg; targeting moieties 5′-GTCCA-3′ and 5′-CG-3′, U1 snRNP recruiting moiety (GTCCACTAACCTTTCAGGCCAGCG; sugars from the 5' end m5 d14 m5, all phosphorothioate, methylation of C and T or U not given here)”, the “cell viability (MTT)” value in data set [1] (48 and 72 hours) was “no difference when compared to the control (vehicle group), only in the highest concentration (30 μM)”. In data set [1] (24 hours), the “cell viability (MTT)” value is “can alter cell viability”. The “concentrations observed to reduce cell viability (MTT)” value in data set [2] (96 and 144 hours) is at least 0.3 µM. Besides, the “concentration observed to reduce cell viability (MTT)” value in data set [2] (48 hours) is 30 µM. In addition, in data set [3], the “AKT expression in tumor tissue (ELISA)” value is on record as “reduces the expression of ART protein”. Besides, in data set [4], the “GFAP in tumor tissue (ELISA)” value was “reduction of this biomarker”. Further, in data set [5], the “TAU expression in tumor tissue (ELISA)” value is “significant reduction in TAU expression”. In addition, in data set [6], the “Score: Mitotic figures” value stood at 2; the “Score: Necrosis” value is 3 and 2.
